Measured values published in patent publication US20260085315A1, “POLYNUCLEOTIDE COMPOSITIONS AND METHODS FOR TREATMENT OF CANCER” (APTAH BIO, INC., priority 2023, published 2026).
Where “and” joins values, the source holds several entries; their conditions need not be identical. Identical values can stand only once. d = 2'-deoxy (DNA); m = 2'-O-methyl

Legend:
MCF-7 cell line = test: MTT cytotoxicity assay on human cancer cell panel (Example 2); type: cell-based; settings: 24, 48, 72, 96 hours; 0.03-30 μM; 0.1% FBS
Protocol: (§1) Cell lines were maintained in growth medium with 10% of Fetal Bovine Serum (FBS) until the time of the experiments. Cells were sub-cultured by trypsinization and splitting the cell suspension into fresh flasks and supplementing with fresh culture medium. To perform the assay, the cells were trypsinized, neutralized with complete medium (10% FBS), centrifuged, counted with assistance of a hemocytometer, and plated with the respective media with 10% FBS. Cell lines were plated at a density of 1×10^4 cells per well, other than the SH-SY5Y cell line which was plated at a density of 2.5×10^4. The preparation of the different experimental groups was done with 0.1% FBS (U87MG, MCF-7, SH-SY5Y and 786-O) and 1% FBS (PC-3). The untreated cells were used as negative control (medium only). After 24, 48, 72 and 96 hours of incubation, the effect of ASMO1 and controls on cytotoxicity of cells was determined by MTT assay.
(§2) Briefly, plates were taken out and 20 μl of 5 mg/ml of MTT 3-(4,5-dimethythiazol-2-yl)-2,5-diphenyl tetrazolium bromide solution was added to all the wells. Cells were incubated for 3 h at 37° C. After this period, supernatant was aspirated and 100 μl of DMSO was added to each well to dissolve formazan crystals. The absorbance of each well was then read at 540 nm using Synergy HT microplate reader.
(§3) Cells were plated and treated with 7 different concentrations (0.03, 0.1, 0.3, 1, 3, 10 and 30 μM) of APT20TTMG with medium (0.1% FBS). MTT assay was performed in 4 distinct times and graphs are represented as absorbance (540 nm). (A) 24 hours of incubation. (B) 48 hours of incubation. (C) 72 hours of incubation. (D) 96 hours of incubation.

U-87MG cell line = test: as above; type: cell-based; settings: 0.03-30 μM, 0.1% FBS
Protocol: as §1, §2, §3

786-O line = test: as above; type: cell-based; settings: 0.03-30 μM, 0.1% FBS
Protocol: as §1
Briefly, plates were taken out and 20 μl of 5 mg/ml of MTT 3-(4,5-dimethythiazol-2-yl)-2,5-diphenyl tetrazolium bromide solution was added to all the wells. […] The absorbance of each well was then read at 540 nm using Synergy HT microplate reader.
Cells were plated and treated with 7 different concentrations (0.03, 0.1, 0.3, 1, 3, 10 and 30 μM) of APT20TTMG with medium (0.1% FBS). MTT assay was performed in 3 distinct times and graphs are represented as absorbance (540 nm). […]

[1] = tested on: neuroblastoma cell line SH-SY5Y; test: Kinetics of internalization; type: cell-based, Human; settings: all evaluated times
[2] = tested on: neuroblastoma cell line (SK-N-SH); test: Cell viability over time; type: cell-based; settings: 0.5 μM; 24, 48, 96, 144 hours; indicating a cytostatic effect
Protocol: FIG. 26 illustrates cell viability results obtained after 24, 48, 96 and 144 hours of incubation with ASMO1 (0.5 μM) in neuroblastoma cell line (SK-N-SH).

[3] = tested on: U87MG (Human Glioblastoma); test: BrdU cell proliferation assay; type: cell-based
Protocol: In vitro effects of APT20TTMG on viability and proliferation of human cancer cell line U87MG (Human Glioblastoma) were also evaluated by MTT and BrdU assays, respectively. Cells were treated with APT20TTMG and Reference Items in technical triplicates (Experiment was done in 3 different sets) at various concentrations for 48 h, 96 h, and 144 h. APT20TTMG and Reference Items were read after every 48 h.
As shown in FIGS. 32-33, A MTT assay (FIG. 32) was also performed with another five different concentrations of APT20TTMG (0.003, 0.03, 0.3, 3, and 30 μM) and at 48, 96, and 144 hours of incubation. […] Finally, to confirm whether APT20TTMG is a cytotoxic or cytostatic molecule considering its ability to reduce cellular viability in certain concentrations, a cell proliferation assay (FIG. 33) with the U87-MG cell line was also performed in the same conditions as the MTT assay. […] Cells were plated and treated with 5 different concentrations (0.003, 0.03, 0.3, 3, and 30 μM). BrdU assay was performed after 48, 96, or 144 hours of incubation. Data are plotted as a percentage (%) of cell viability compared to the negative control group (vehicle). Results are expressed as Mean±SEM of three independent experiments performed in three technical replicates. Statistical analysis was performed using one-way ANOVA followed by Dunnett's multiple comparison test. *p<0.05, **p<0.01, ***p<0.001, ****p<0.0001.

cAMP = test: ELISA of tumor tissue homogenate; type: in vivo, U-87MG xenograft in animals; settings: vs negative control; lower total expression
Protocol: For the assessment of biomarkers such as cAMP, AKT, GFAP, and TAU by ELISA, the U-87MG tumor tissues dissected out from the animals were homogenized according to kit instructions. The homogenates were centrifugated, and the supernatant was collected and immunoassayed with the Human AKT Protein ELISA Kit (MyByoSouce), cyclic AMP Complete Enzyme-linked Immunosorbent Assay (ELISA) kit (MyByoSouce), Human Glial Fibrillary Acidic Protein (GFAP) ELISA Kit (Cusabio), and Human TAU Protein (TAU) ELISA Kit (MyByoSouce) for the quantitative determination of cAMP, AKT, GFAP, and TAU proteins, respectively.
As shown in FIG. 37A-D, the graphs present the individual values of protein quantification of tumors from 6 animals. (A) cAMP, (B) […], (C) GFAP, and (D) TAU.

[4] = tested on: Human Glioblastoma Cancer (U-87MG) xenograft; test: Histopathology of tumor samples with scoring; type: in vivo, athymic nude mice; set-up: key: 4: Minimal; 3: Mild; 2: Moderate; 1: Prominent; settings: individual animals; G3 APT20TTMG, G2 TMZ
Text: (§4) The fixed tissues were processed for routine paraffin embedding followed by sectioning (3-6 micron). The sections were stained with hematoxylin and eosin. The prepared slides were examined under microscope by the study pathologist to record histopathological findings in tumor samples, related to capsule formation, cell type, connective tissue stroma, apoptosis, necrosis, lipid content, nucleus-to-cytoplasmic (N:C) ratio, nuclei mitotic figures, tumor grade, and level of differentiation. Each histopathological finding and tumor volume were assigned a score ranging from 1 to 4 (Table 7). The sum of these scores for each sample was used to infer the tumor aggressiveness.

[5] = tested on: Human Glioblastoma Cancer (U-87MG) xenograft; test: Histopathology of tumor samples with scoring; type: in vivo, athymic nude mice; set-up: key: 1: Minimal Fibrosis; 2: Mild Fibrosis; 3: Moderate Fibrosis; 4: Prominent; settings: individual animals; G3 APT20TTMG, G2 TMZ
Text: as §4

“APT20TTMG: engineered polynucleotide ASMO1, 24 nt, SEQ ID NO: 3 gtccactaacctttcaggccagcg; targeting moieties 5′-GTCCA-3′ and 5′-CG-3′, U1 snRNP recruiting moiety (GTCCACTAACCTTTCAGGCCAGCG; sugars from the 5' end m5 d14 m5, all phosphorothioate, methylation of C and T or U not given here)” was tested, and the “cytotoxic or cytostatic effect (MTT)” value (MCF-7 cell line) was “does not exert a cytotoxic or cytostatic effect”, the “cell viability (MTT, absorbance 540 nm)” value (U-87MG cell line; 72 and 96 hours) was “like those of the vehicle group” and the “cell viability (MTT, absorbance 540 nm)” value (U-87MG cell line; 24 hours, vs negative control and vehicle) was “trend of reduction in cell viability”. For the same substance, the “cell viability (MTT, absorbance 540 nm)” value (U-87MG cell line; 48 hours) was “reduction in absorbance values”, the “cell viability (MTT)” value (786-O line; 48 and 72 hours) was “no difference when compared to the control (vehicle group), only in the highest concentration (30 μM)” and the “cell viability (MTT)” value (786-O line; 24 hours) was “can alter cell viability”. The internalization [1] was “around 50%”, the “number of viable cells” value [2] was “remains practically the same” and the “cell proliferation (BrdU)” value ([3]; 0.03 μM, first 48 hours) was “increase in cell proliferation”. The “cell proliferation (BrdU)” value ([3]; highest concentrations (0.3, 3, 30 μM), 144 hours) was “significant reduction in cell proliferation”, the “cell proliferation (BrdU)” value ([3]; highest concentrations (0.3, 3, 30 μM), first 48 hours) was “temporary increase in cell proliferation” and the “cell proliferation (BrdU)” value ([3]; lowest concentrations (0.003 and 0.03 μM), 144 hours) was “statistically significant decrease in proliferation”. For the same substance, the “cAMP in tumor tissue (ELISA)” value (cAMP) was “no statistical difference was observed”, the “Score: Mitotic figures” value [4] was 2 and the “Score: Necrosis” value [4] was 3 and 2. For the same substance, the “Score: Necrosis” value [5] was 4.
